Here are results for two compounds from patent publication US20110184018A1, “METHOD FOR TREATING PERIPHERAL NEUROPATHIC PAIN” (LOHOCLA RESEARCH CORPORATION, priority 2005, published 2011).

The target of data set [1] is T1, cannabinoid receptor 1 (CB1) (Homo sapiens, UniProt P21554).
T1 construct: expressed in transfected cells; host or cells: HEK293 cells
The experiment in a line: Displacement of [3H]CP55940 from CB1 receptors expressed in HEK293 cells. Type of data set: binding. To be noted: [3H]CP55940 displacement, Cheng-Prusoff. From the text:
The cannabinoid receptor 1 (CB1) is a G-protein coupled receptor (GPCR), which can modulate the enzymatic activity of adenylyl cyclase (AC), inhibit calcium influx into neurons and increase neuronal potassium permeability. The CB1 receptors have been reported to be intimately involved in the progression and control of chronic pain. The CB1 receptors reportedly are involved in both the amelioration of anxiety and depression and may also be important in cognitive function and eating behavior. The interaction of a chemical entity with a CB1 receptor can be measured by the binding of selective radioligands to the native receptor or a CB1 receptor expressed in model cell systems. To ascertain the extent to which a non-radioactive ligand binds to a CB1 receptor the displacement of the radioactive CB1 selective ligand with DCUK-OEt was performed. The methods of assay and calculations for binding constants can be accessed, for example, on the PDSP website (pdsp(dot)med(dot)unc(dot)edu/indexR(dot)html). For binding of DCUK-OEt to the CB1 receptor, the displacement of the CB1 selective radioligand [^3H] CP55940 from CB1 receptors expressed in HEK293 cells was monitored. The log IC50 was determined from the displacement data, and the Ki values for DCUKA and DCUK-OEt were calculated using the Cheng-Prusoff equation.
Background: Displacement assays read how much labelled ligand stays bound in the presence of the test substance.

Data set [2] can be described thus: Plasma and brain levels after oral administration of DCUK-OEt. It counts as in vivo. To be noted: rat, 200 mg/kg DCUK-OEt emulsion by oral gavage. As to the method: Oral administration has been the major route of drug administration for the treatment of many diseases. […] Groups of rats were administered 200 mg/kg DCUK-OEt prepared as an emulsion in gelatin:canola oil (50:50) by oral gavage and sacrificed at 0.25, 0.5, 1, 1.5, 2, 4, 6, and 8 hours following administration, in order to collect the blood and brains for analysis. Plasma and brain levels of DCUKA and DCUK-OEt were analyzed by liquid chromatographic separation and mass spectrometric detection. Orally administered DCUK-OEt was converted to DCUKA by plasma and brain carboxylesterases. Peak levels of plasma DCUK-OEt were reached by about 1 hour post-administration, and fell to low levels by about 2 hours. DCUKA plasma levels peaked at about 2 hours and then fell off slowly over the next 4 hours. Brain DCUK-OEt levels peak at about 1 hour post-administration.
Oral administration. Following overnight food deprivation, groups of 3 rats were administered 200 mg/kg DCUK-OEt by oral gavage (40 mg/mL DCUK-OEt at 5 mL/kg body weight). Groups of rats were anesthetized and sacrificed by decapitation at 0.25, 0.5, 1, 1.5, 2, 4, 6, and 8 hours post-administration. Trunk blood was collected into tubes containing K2EDTA anticoagulant and brains were removed, washed thoroughly with 0.9% NaCl, and frozen on dry ice. Blood samples were centrifuged at 4000 rpm for 10 minutes. Plasma supernatant was removed and frozen at −80° C. until the time of the assay.
Liquid chromatographic-mass spectrometric determination of plasma and brain DCUKA and DCUK-OEt levels. Rat plasma sample preparation involved a simple protein precipitation procedure (100 μL plasma+250 μL acetonitrile containing 25 ng/mL of the internal standard, DCUK-OMe). After vortexing (5 minutes) and centrifugation (5000 g, 5 minutes, +4° C.), 200 μL of the supernatant was injected into the HPLC system and loaded onto the extraction column. Frozen brain tissue samples (about 0.5 g) were homogenized over liquid nitrogen using a mortar and pestle. The homogenized powder was transferred into the tubes containing 1.5 mL ice-cold 100% acetonitrile and 25 ng/mL DCUK-OMe (used as an internal standard). Following procedures were all performed on ice or at 4° C. The samples were further homogenized using an electric homogenizer for 30 seconds at 4° C. Subsequently, the tubes were placed into the ultrasonic bath for 30 minutes (on ice), and centrifuged afterwards at 1300 g for 10 minutes at 4° C. The supernatant was transferred into the HPLC tube. The pellet was re-extracted with 500 μL MeOH (containing 25 ng/mL DCUK-OMe), sonicated for 10 minutes, and centrifuged (10 minutes at 1300 g, 4° C.). The MeOH phase was combined with the acetonitrile solution from the first extraction step and 500 μL of the solution was directly injected into the HPLC system.
The two HPLC systems consisted of the following components (all series 1100, Agilent Technologies, Palo Alto, USA): HPLC I: G1312A binary pump, G1379A degasser; HPLC II: G1312A binary pump, and a G1316A column thermostat. A Sciex API 4000 triple-stage quadrupole mass spectrometer was used as detector (Applied Biosystems, Foster City, USA). The HPLC systems were connected via a 6-port column switching valve mounted on a step motor. The HPLC's switching valve and the mass spectrometer were controlled by the Analyst software (version 1.3.1., Applied Biosystems). […]

T1 sequence (P21554 whole entry, species assumed): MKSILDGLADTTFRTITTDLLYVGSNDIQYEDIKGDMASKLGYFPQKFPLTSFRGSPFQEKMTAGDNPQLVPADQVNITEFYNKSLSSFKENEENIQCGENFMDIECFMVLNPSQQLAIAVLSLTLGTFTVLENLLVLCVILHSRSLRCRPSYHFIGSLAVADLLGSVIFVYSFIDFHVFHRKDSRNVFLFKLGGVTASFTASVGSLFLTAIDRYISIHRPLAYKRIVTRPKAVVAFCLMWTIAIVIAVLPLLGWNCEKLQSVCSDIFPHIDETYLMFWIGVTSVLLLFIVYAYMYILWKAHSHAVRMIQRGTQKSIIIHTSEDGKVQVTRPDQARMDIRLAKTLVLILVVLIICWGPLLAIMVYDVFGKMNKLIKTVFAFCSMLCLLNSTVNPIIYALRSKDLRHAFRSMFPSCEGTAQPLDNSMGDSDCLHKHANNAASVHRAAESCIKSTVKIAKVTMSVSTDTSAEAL

As for `CCOC(=O)c1cc(NC(=O)N(c2ccccc2)c2ccccc2)c2c(Cl)cc(Cl)cc2n1` [DCUK-OEt, N,N-diphenyl-4-ureido-5,7-dichloro-2-carboxy quinoline ethyl ester], affinity in data set [1] was put at a Ki of 7.4 µM. The “time at which plasma level fell to low levels” value in data set [2] is “about 2 hours”. For the same compound, in data set [2] (analyte = label), the “time of peak brain level” value is “about 1 hour” and the “time of peak plasma level” value is reported as “about 1 hour”.
Consider `O=C(O)c1cc(NC(=O)N(c2ccccc2)c2ccccc2)c2c(Cl)cc(Cl)cc2n1` [DCUKA, N,N-diphenyl-4-ureido-5,7-dichloro-2-carboxyquinoline], for which the Ki – broadly, the dissociation constant of the complex between target and ligand, obtained from inhibition or displacement – in data set [1] is more than 10 µM. Also, the “time of peak plasma level” value in data set [2] (analyte = label) is reported as “about 2 hour”. The “brain level at about 8 hours post-administration” value in data set [2] (analyte DCUKA) is given as “still elevated”.
